Reference: patent publication US20200087248A1, “Fluoroallylamine Derivative And Use Thereof” (SICHUAN KELUN-BIOTECH BIOPHARMACEUTICAL CO., LTD., priority 2017, published 2020)
Counter-ions that a name gives are not always drawn.

Legend:
MAO-A = target: T1, MAO-A (Homo sapiens, UniProt P21397); experiment: Inhibition of the enzymatic activity of MAO-A; type: biochemical; conditions: range of IC50 from inhibition rates at 100 μM and 10 μM; read-out: IC50, inhibition against the enzymatic activity of MAO-A
T1 construct: purchased Sigma Aldrich
T1 sequence (P21397 1-527): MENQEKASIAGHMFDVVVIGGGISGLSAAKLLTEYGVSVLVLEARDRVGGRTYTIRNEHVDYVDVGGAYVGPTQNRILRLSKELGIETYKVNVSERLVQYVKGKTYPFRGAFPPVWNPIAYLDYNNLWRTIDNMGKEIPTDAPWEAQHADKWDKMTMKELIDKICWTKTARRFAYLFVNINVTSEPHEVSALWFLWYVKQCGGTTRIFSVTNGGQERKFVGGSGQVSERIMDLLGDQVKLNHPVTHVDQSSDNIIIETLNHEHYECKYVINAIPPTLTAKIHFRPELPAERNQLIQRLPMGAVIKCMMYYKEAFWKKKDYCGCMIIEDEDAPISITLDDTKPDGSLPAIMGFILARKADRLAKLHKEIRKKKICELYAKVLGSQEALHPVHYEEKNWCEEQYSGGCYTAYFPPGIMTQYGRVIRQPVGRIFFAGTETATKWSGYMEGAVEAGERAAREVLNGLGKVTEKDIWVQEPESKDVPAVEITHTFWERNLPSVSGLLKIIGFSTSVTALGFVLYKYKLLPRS
Description: Inhibition Experiment Against the Enzymatic Activity of MAO-A (Monoamine Oxidase Type A)
(§1) 1. Test kit: Amplex® Red Monoamine Oxidase Assay, Manufacturer: ThermoFisher
2. Reaction Buffer Solution: 50 mM PBS, pH 7.4
Protein: MAO-A, manufacturer: Sigma Aldrich
According to the method as described in the specification of the kit, MAO-A protein (15 μg/ml) and different concentrations of the test compound were pre-incubated at room temperature for 30 minutes, and then 200 μM p-tyramine hydrochloride, 1 U/mL HRP and 200 µM Amplex Red reagent were added to start the reaction. In kinetic mode, fluorescence signals were measured at Ex/Em=540/590 nm. The inhibition rate of each concentration group was calculated, wherein the ratio of fluorescence signal to reaction time ratio is the reaction rate, the vehicle group (DMSO) is the negative control, and the reaction buffer solution group (without enzymes and the compounds) is the blank control.
Percent inhibition rate (%)=(1-(reaction rate of each compound concentration group−reaction rate of the blank group)/(reaction rate of vehicle group−reaction rate of the blank group))*100.
According to the above method, the inhibition of the compound against the enzymatic activity of MAO-A was measured, and the range of IC50 was obtained according to the inhibition rates at 100 μM and 10 μM.

hERG = target: T2, hERG (Homo sapiens, UniProt Q12809); experiment: hERG fluorescence polarization inhibition experiment; conditions: hERG cell membrane, 25° C. 2 hours, read-out: hERG (IC50 range, competitive binding vs tracer)
T2 construct: purchased ThermoFisher; host or cells: hERG cell membrane supplied with the kit
Summary of the method: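 Fluorescence-polarization tracer displacement on hERG cell membranes; compound and high-affinity tracer incubated 2 h at 25 °C. % inhibition from mP relative to buffer (0%) and 30 μM E4031 (100%) over several concentrations, giving an IC50 range.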

MAO-B = target: T3, MAO-B (Homo sapiens, UniProt P27338); experiment: Inhibition of the enzymatic activity of MAO-B; type: biochemical; conditions: range of IC50 from inhibition rates at 10 μM, 1 μM and 0.1 μM; read-out: IC50, inhibition against the enzymatic activity of MAO-B
T3 construct: purchased Sigma Aldrich
T3 sequence (P27338 1-520): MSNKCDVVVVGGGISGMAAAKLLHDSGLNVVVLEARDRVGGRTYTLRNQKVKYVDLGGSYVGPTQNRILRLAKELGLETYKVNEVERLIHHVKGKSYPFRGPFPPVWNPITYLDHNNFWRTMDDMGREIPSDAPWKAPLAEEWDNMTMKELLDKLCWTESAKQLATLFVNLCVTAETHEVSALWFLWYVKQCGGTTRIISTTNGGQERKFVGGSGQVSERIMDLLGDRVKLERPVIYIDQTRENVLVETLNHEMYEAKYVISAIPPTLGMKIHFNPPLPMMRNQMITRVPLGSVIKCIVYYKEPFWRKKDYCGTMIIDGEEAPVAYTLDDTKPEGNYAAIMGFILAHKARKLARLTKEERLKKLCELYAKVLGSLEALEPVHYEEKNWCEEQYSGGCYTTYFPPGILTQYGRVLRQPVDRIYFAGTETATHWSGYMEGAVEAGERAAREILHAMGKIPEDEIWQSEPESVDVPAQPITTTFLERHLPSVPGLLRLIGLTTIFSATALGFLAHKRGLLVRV
Description: Inhibition Experiment Against the Enzymatic Activity of MAO-B (Monoamine Oxidase Type B)
as §1
Protein: MAO-B, manufacturer: Sigma Aldrich
According to the method as described in the specification of the test kit, MAO-B protein (5 μg/ml) and different concentrations of the test compound were pre-incubated at room temperature for 10 minutes, and then 150 μM benzylamine hydrochloride, 1 U/mL HRP and 200 μM Amplex Red reagent were added to start the reaction. The relative inhibition rate of each concentration group were calculated according to the experimental method of MAO-A.
According to the above method, the inhibition of the compound against the activity of the MAO-B was measured, and the range of IC50 was obtained according to the inhibition rates at 10 μM, 1 μM and 0.1 μM.

T2 sequence (Q12809 whole entry): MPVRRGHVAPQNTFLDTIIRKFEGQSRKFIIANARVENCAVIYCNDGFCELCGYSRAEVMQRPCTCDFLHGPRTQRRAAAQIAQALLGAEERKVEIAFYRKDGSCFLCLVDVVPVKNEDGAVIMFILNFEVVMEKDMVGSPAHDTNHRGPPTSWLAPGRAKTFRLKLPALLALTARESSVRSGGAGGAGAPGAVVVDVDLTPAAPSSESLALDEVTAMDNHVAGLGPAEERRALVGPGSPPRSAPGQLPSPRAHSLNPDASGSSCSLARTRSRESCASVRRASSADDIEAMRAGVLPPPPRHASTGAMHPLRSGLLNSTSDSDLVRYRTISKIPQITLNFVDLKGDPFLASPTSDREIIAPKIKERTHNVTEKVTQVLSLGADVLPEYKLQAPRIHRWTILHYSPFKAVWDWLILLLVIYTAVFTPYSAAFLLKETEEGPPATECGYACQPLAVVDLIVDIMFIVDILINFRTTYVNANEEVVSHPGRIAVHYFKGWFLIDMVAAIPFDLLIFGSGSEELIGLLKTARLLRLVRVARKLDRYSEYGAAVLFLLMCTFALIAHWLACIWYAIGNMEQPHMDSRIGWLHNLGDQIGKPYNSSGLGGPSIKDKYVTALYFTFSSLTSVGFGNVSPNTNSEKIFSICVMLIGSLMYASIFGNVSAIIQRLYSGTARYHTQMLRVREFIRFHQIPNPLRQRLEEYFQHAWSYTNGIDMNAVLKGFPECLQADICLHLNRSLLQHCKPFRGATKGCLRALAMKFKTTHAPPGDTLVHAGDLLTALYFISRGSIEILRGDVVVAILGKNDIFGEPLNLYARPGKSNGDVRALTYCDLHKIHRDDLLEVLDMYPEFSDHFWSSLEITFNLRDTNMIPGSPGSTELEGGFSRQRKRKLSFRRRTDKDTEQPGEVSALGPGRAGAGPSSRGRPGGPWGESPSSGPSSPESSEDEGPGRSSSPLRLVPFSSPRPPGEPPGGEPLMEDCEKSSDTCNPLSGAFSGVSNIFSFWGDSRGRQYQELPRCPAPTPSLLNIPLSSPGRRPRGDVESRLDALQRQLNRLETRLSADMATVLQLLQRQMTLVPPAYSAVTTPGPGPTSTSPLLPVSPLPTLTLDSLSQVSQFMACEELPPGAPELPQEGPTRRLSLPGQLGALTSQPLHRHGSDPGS

| IC50 (MAO-A) | IC50 (MAO-B) | Compound | IC50 (hERG) |
| --- | --- | --- | --- |
| > 100 µM | > 10 µM | NC/C(=C\F)COc1ccc2c(c1)C(=O)CC2 [TM7-E, (E)-6-((2-aminomethyl-3-fluoroallyl)oxy)-2,3-dihydro-1-indenone trifluoroacetate] | > 10 µM |
| > 100 µM | > 1 µM | NC/C(=C\F)COc1ccc(C(=O)NC2CCOCC2)cc1 [TM76-E, (E)-N-(tetrahydro-2H-pyran-4-yl)-4-((2-aminomethyl-3-fluoroallyl)oxy)-benzamide trifluoroacetate] | > 10 µM |
| > 100 µM | > 1 µM | NC/C(=C/F)COc1ccc2c(c1)CCNC2=O [TM26-Z, (Z)-6-((2-aminomethyl-3-fluoroallyl)oxy)-3,4-dihydroisoquinolin-1(2H)-one trifluoroacetate] | > 10 µM |
| > 10 µM |  | NC/C(=C\F)COc1ccc(-c2ncccn2)cc1 [TM39-E, (E)-2-(4-(2-pyrimidyl)phenoxymethyl)-3-fluoroallylamine trifluoroacetate] | > 10 µM |
|  |  | NC/C(=C\F)COc1ccc(C(=O)Nc2ccccc2)cc1 [TM1-E, (E)-N-phenyl-4-((2-aminomethyl-3-fluoroallyl)oxy)-benzamide trifluoroacetate] | > 10 µM |
| > 100 µM | > 0.1 µM | NC/C(=C/F)COc1ccc(C(=O)NCc2ccccn2)cc1 [TM112-Z, (Z)-4-((2-aminomethyl-3-fluoroallyl)oxy)-N-(pyridin-2-ylmethyl)benzamide trifluoroacetate] | > 10 µM |

| Compound | IC50 (MAO-A) | IC50 (MAO-B) | IC50 (hERG) |
| --- | --- | --- | --- |
| (E)-6-((2-(methylamino)-3-fluoroallyl)oxy)-3,3-dimethyl-3,4-dihydro-isoquinolin-1(2H)-one trifluoroacetate [TM38-E] | > 100 µM | > 10 µM | > 10 µM |
| (E)-6-((2-(methylamino)-3-fluoroallyl)oxy)-2-methyl-3,4-dihydroisoquinolin-1(2H)-one trifluoroacetate [TM66-E] | > 10 µM | > 10 µM | > 10 µM |
